Legend:
[1] = system: Mouse cortical cell cultures; assay: NMDA neurotoxicity in cortical cell cultures (LDH release); assay type: cell-based; conditions: for neuroprotective effect against NMDA neurotoxicity relative to BAS: comparison in words
Method: (§1) Primary cortical cell cultures from embryonic mice were prepared and used to examine neuroprotective action of compounds. Mouse cortical cell culture system has been extensively used to study mechanisms and pharmacological intervention of neuronal death in neurological diseases. In brief, mouse cerebral cortices were removed from brains of the 15 day-old-fetal mice, in accordance with a protocol approved by our institutional animal care committee. […] After 7 days in vitro (DIV 7), cultures were shifted into a growth medium identical to the plating medium but lacking fetal serum. At DIV 7 - 9, […] cytosine arabinofuranoside was included to halt overgrowth of glia. Mixed cultures of neurons and glia were then fed twice a week.

[2] = system: Mouse cortical cell cultures; assay: Fe^2+-induced free radical neurotoxicity in cortical cell cultures (LDH release); assay type: cell-based; conditions: for prevention of free radical neurotoxicity relative to BAS / protection against free radical neurotoxicity relative to NBAS: comparison in words; for effect on Fe^2+-induced free radical neurotoxicity: 10 µM compound; for effect on Fe^2+-induced free radical neurotoxicity / effect on Fe^2+-induced neuronal death: continuous 50 µM Fe^2+; for effect on Fe^2+-induced neuronal death: 1 µM compound
Method: as §1

[3] = system: Mouse cortical cell cultures; assay: Zn^2+ neurotoxicity in cortical cell cultures (LDH release); assay type: cell-based; conditions: for neuroprotective effect against Zn^2+ neurotoxicity relative to BAS: comparison in words
Method: as §1

[4] = DPPH anti-oxidant assay (decrease in DPPH absorption at 517 nm); assay type: biochemical; conditions: mean ± SEM, n = 3, DPPH alone 1.2
Method: To examine anti-oxidant effect, DPPH (2,2-diphenyl-1-picryl-hydrazyl radical), a stable free radical, was dissolved in ethanol to make a 100 µM solution. A compound was reacted with DPPH or ethanol. After incubation for 30 min, relative decrease in DPPH absorption at 517 nm was measured by a spectrophotometer.

[5] = 10 µM compound reacted with 100 uM DPPH in ethanol for 30 min
[6] = 30 µM compound reacted with 100 uM DPPH in ethanol for 30 min
[7] = 100 µM compound reacted with 100 uM DPPH in ethanol for 30 min
[8] = 300 µM compound reacted with 100 uM DPPH in ethanol for 30 min
[9] = 300 µM compound, 300 µM NMDA for 10 min, in words

For `O=C(O)c1cc(NCc2ccc([N+](=O)[O-])cc2)ccc1O` [NBAS, 5-(4-nitrobenzyl)aminosalicylic acid], the “neuroprotective effect against NMDA neurotoxicity relative to BAS” value [1] was “did not reduce neuroprotective effects of BAS”, the “prevention of free radical neurotoxicity relative to BAS” value [2] was “more potent than BAS” and the “neuroprotective effect against Zn^2+ neurotoxicity relative to BAS” value [3] was “did not reduce neuroprotective effects of BAS”. The A517nm [4, 5] was 0.37±0.1, the A517nm [4, 6] was 0.04 ± 0.01 and the A517nm [4, 7] was 0.04±0.00. The A517nm [4, 8] was 0.04±0.00.
For `O=C(Nc1ccc(O)c(C(=O)O)c1)c1ccc([N+](=O)[O-])cc1` [NBAA, 5-(4-nitrobenzoyl)aminosalicylic acid], the “effect on NMDA neurotoxicity” value ([1]; 30 µM compound, 300 µM NMDA for 10 min, in words) was “significantly attenuated”, the “change of protective effect against NMDA with higher doses” value ([1]; above 30 µM up to 300 µM, in words) was “not further increased” and the “protection against free radical neurotoxicity relative to NBAS” value [2] was “weaker than NBAS”. The A517nm [4, 7] was 0.42 ± 0.22.
For `O=C(O)c1cc(NCc2c(F)c(F)c(F)c(F)c2F)ccc1O` [PBAS, 5-(pentafluorobenzyl)aminosalicylic acid], the inhibition at 300 µM ([1]; Mus musculus, 300 µM compound, 300 µM NMDA for 10 min, LDH 24 hr later, read-out: reduction of NMDA-induced neuronal death) was roughly 65%.
With `CCOC(=O)c1cc(N(Cc2ccc([N+](=O)[O-])cc2)C(C)=O)ccc1O` [NNAHE, 5-(4-nitrobenzyl)-N-acetylamino-2-hydroxy ethylbenzoate] the “effect on NMDA neurotoxicity” value [1, 9] was “attenuated” and the “effect on Fe^2+-induced free radical neurotoxicity” value ([2]; in words) was “blocked”.
In the case of `CCOC(=O)c1cc(NCc2ccc([N+](=O)[O-])cc2)ccc1O` [NAHE, 5-(4-nitrobenzyl)amino-2-hydroxy ethylbenzoate], the “effect on NMDA neurotoxicity” value [1, 9] is reported as “attenuated” and the “effect on Fe^2+-induced free radical neurotoxicity” value ([2]; in words) is reported as “blocked”.
In the case of `O=C(O)c1cc(NCCc2ccc([N+](=O)[O-])cc2)ccc1O` [NPAA, 5-[2-(4-nitrophenyl)-ethyl]aminosalicylic acid], the “effect on NMDA neurotoxicity” value [1, 9] is reported as “slightly reduced”, the “effect on Fe^2+-induced neuronal death” value ([2]; in words) is reported as “complete blockade” and the “protection against free radical neurotoxicity relative to NBAS” value [2] is reported as “more effective than NBAS”. It also gave an A517nm [4, 7] of 0.09 ± 0.01.
In the case of `O=C(O)c1cc(NCc2ccc(Cl)cc2)ccc1O` [CBAS, 5-(4-chlorobenzyl)aminosalicylic acid], the “neuroprotective effect against NMDA neurotoxicity relative to BAS” value [1] is reported as “did not reduce neuroprotective effects of BAS”, the “prevention of free radical neurotoxicity relative to BAS” value [2] is reported as “more potent than BAS” and the “neuroprotective effect against Zn^2+ neurotoxicity relative to BAS” value [3] is reported as “did not reduce neuroprotective effects of BAS”.
For `O=C(O)c1cc(NCc2ccc(C(F)(F)F)cc2)ccc1O` [TBAS, 5-(4-trifluoromethylbenzyl)aminosalicylic acid], the “neuroprotective effect against NMDA neurotoxicity relative to BAS” value [1] was “did not reduce neuroprotective effects of BAS”, the “prevention of free radical neurotoxicity relative to BAS” value [2] was “more potent than BAS” and the “neuroprotective effect against Zn^2+ neurotoxicity relative to BAS” value [3] was “did not reduce neuroprotective effects of BAS”.
With `O=C(O)c1cc(NS(=O)(=O)c2ccc([N+](=O)[O-])cc2)ccc1O` [NBSAA, 5-(4-nitrobenzenesulfonyl)aminosalicylic acid] the “effect on NMDA neurotoxicity” value [1, 9] was “markedly reduced”, the “effect on NMDA neurotoxicity” value ([1]; 30 - 300 µM compound, 300 µM NMDA for 10 min, in words) was “attenuated NMDA neurotoxicity in a dose-dependent manner” and the “protection against free radical neurotoxicity relative to NBAS” value [2] was “weaker than NBAS”. The A517nm [4, 7] was 0.15 ± 0.05.
Work on `Cc1c(C)c2c(c(C)c1O)CCC(C)(C(=O)O)O2` (centres unmarked) [Trolox, trolox] yielded an A517nm ([4]; 3 µM compound reacted with 100 uM DPPH in ethanol for 30 min) of 1.08±0.1, an A517nm [4, 5] of 0.89±0.08 and an A517nm [4, 6] of 0.39±0.06. The A517nm [4, 7] was 0.05±0.01 and the A517nm [4, 8] was 0.03±0.01.
In the case of `CCOC(=O)c1cc(N(Cc2ccc([N+](=O)[O-])cc2)C(C)=O)ccc1OC(C)=O` [NNAAE, 5-(4-nitrobenzyl)-N-acetylamino-2-acetoxy ethylbenzoate], the “effect on NMDA neurotoxicity” value [1, 9] is reported as “attenuated” and the “effect on Fe^2+-induced free radical neurotoxicity” value ([2]; in words) is reported as “blocked”.
With `O=C(O)c1cc(NCCCc2ccc([N+](=O)[O-])cc2)ccc1O` [NPPAA, 5-[3-(4-nitrophenyl)-n-propyl]aminosalicylic acid] the “effect on NMDA neurotoxicity” value [1, 9] was “slightly reduced”, the “effect on Fe^2+-induced neuronal death” value ([2]; in words) was “complete blockade” and the “protection against free radical neurotoxicity relative to NBAS” value [2] was “more effective than NBAS”. The A517nm [4, 7] was 0.09 ± 0.02.
In the case of `Nc1ccc(O)c(C(=O)O)c1` [AS, 5-amino salicylic acid], the “effect on NMDA-induced neuronal death” value ([1]; 10 - 300 µM compound, 300 µM NMDA for 10 min, in words) is reported as “did not attenuate”, the “effect on free radical neurotoxicity following exposure to Fe^2+” value ([2]; 10 - 100 µM compound, 24 hr-exposure to 50 µM Fe^2+, in words) is reported as “dose-dependently prevented” and the “effect on neuronal death after exposure to Zn^2+” value ([3]; 10 - 300 µM compound during and post Zn^2+ treatment, 300 µM Zn^2+ for 30 min, in words) is reported as “not reduced”.

Reference: patent publication EP1274675B1, “COMPOUNDS, COMPOSITIONS AND METHODS FOR PREVENTING NEURODEGENERATION IN ACUTE AND CHRONIC INJURIES IN THE CENTRAL NERVOUS SYSTEM” (Neurotech Co., Ltd., priority 2000, dated 2001)
